Test results taken from article PMC2846469, “Pharmacokinetic Study of a Novel Antihyperlipidemic Agent LM-13765- A Prodrug” (Indian Journal of Pharmaceutical Sciences, 2009).
“Also recorded” adds a separate entry of the source.

Columns and labels:
[1] = Stability in plasma under storage conditions; assay type: in vitro ADME, rabbit; conditions: -20°, one day (24 h)
Method: The method was validated in terms of linearity, limit of quantitation, limit of detection, precision, accuracy and specificity. The linear response for LM 13765 spiked in plasma, was determined by analyzing corresponding samples five times for each concentration in the range of 12.5 to 100 ng/spot. The lowest concentration of the calibration range is taken as the limit of quantitation for LM 13765 while the limit of detection was determined by spotting concentrations of LM 13765 lower than the limit of quantitation. […] The recovery of LM 13765 from plasma (extraction efficiency) was determined by comparing peak areas obtained from plasma spiked with LM 13765 at concentration levels of 12.5, 25, 50, 75 and 100 ng/spot with the corresponding standards of LM 13765. Accuracy of the proposed method was determined by standard addition method at three different concentrations of LM 13765 in the range of 12.5 to 100 ng/spot. Specificity of the proposed method was assessed in terms of purity of chromatographic peak corresponding to LM 13765 by correlating the spectra scanned at peak start, peak apex and peak end positions of the spot corresponding to LM 13765. […] The sample was analyzed, on the same day as well as after 24 h storage, for the amounts of LM 13765. […]

[2] = tested on: hyperlipidemic rats; assay: Biological screening for antihyperlipidemic activity on hyperlipidemic rats; assay type: in vivo
[3] = tested on: mice; conditions: up to the dose of 4.5 g/kg, earlier study reported in the introduction; cited from earlier work
[4] = tested on: serum cholesterol, triglycerides and HDL levels; design: method as in PMID 9037441; conditions: cited from earlier work
[5] = Preliminary in vivo study: serum LM 13765 by HPTLC after oral LM 13765; design: species or system rabbits (New Zealander strain); conditions: rabbits, oral 100 mg/kg, samples 0.5-12 h
Method: Drug/metabolite-free plasma or plasma spiked with fixed aliquots of LM 13765 or rabbit serum sample (0.2 ml) was taken in a glass centrifuge tube (15 ml capacity). Sufficient amount of acetonitrile was added to make the volume to 1.6 ml and vortexed at high speed for 1 min. The mixture was centrifuged (2500 rpm, 15 min) and the clear supernatant layer was transferred to another tube and dried over anhydrous sodium sulphate (0.25 g). Adequate volumes of the dried acetonitrile layer were spotted onto the TLC plate. Chromatographic estimations were performed using precoated silica gel 60 F254 TLC plates (prewashed with methanol and dried in air) under following conditions; A mobile phase, benzene:methanol (8:2 v/v); chamber saturation time, 60 min; temperature, 25±2°; development of plates, ascending mode; migration distance, 50 mm; slit dimension, 3×0.3 mm; wavelength of detection, 314 nm; band width, 4 mm; space between two bands, 4 mm; spraying rate, 10 μl/s.
Suitable volumes of standard solution of LM 13765 in acetonitrile or extracts of drug/metabolite-free plasma or rabbit serum samples, were applied on TLC plate under nitrogen stream using semiautomatic spotter. The plate was dried in air and developed at constant temperature (25±2°) using a mixture of benzene:methanol (8:2 v/v) as the mobile phase. […] Peak area values were used for quantitative determination. […]

CCOC(=O)C(C#N)=C(N)Nc1ccc(Cl)cc1 [LM 13765-C, ethyl 3-amino-2-cyano-3-(p-chloroanilino)acrylate]
Stability in plasma under storage conditions [1]: stable | antihyperlipidemic activity relative to parent compound LM 13765 [2]: less potent than the parent compound; also recorded: very good antihyperlipidemic activity but is less potent than the parent compound

CCOC(=O)C(C#N)=C(NC=N)Nc1ccc(Cl)cc1 [LM 13765, N-[2-carbethoxy-2-cyano-1-(p-chloroanilino)vinyl]formamidine]
Stability in plasma under storage conditions [1]: undergoes significant degradation in one day | mortality or behavioral changes after oral administration [3]: no mortality or behavioral changes | potency versus standard drug gemfibrozil in lowering serum cholesterol and triglycerides and elevating serum HDL [4]: more potent than the standard drug gemfibrozil | Parent LM 13765 in serum after oral administration (HPTLC spot Rf 0.21) [5]: no spot corresponding to LM 13765
